PubChem BioAssay (NCI)
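Each compound was tested at five concentrations against cells in 96-well plates for 48 hours. Abbreviation: GI50, concentration required for 50% inhibition of growth. Definition used: TGI = concentration required for complete inhibition of growth.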

What was measured:
Assay in all cases: NCI-60 cell line screen, 48 h
A498 renal = system: A498 renal
SNB-19 CNS = system: SNB-19 CNS
786-0 renal = system: 786-0 renal
MCF7 breast = system: MCF7 breast
U251 CNS = system: U251 CNS
SK-MEL-5 melanoma = system: SK-MEL-5 melanoma
RXF 393 renal = system: RXF 393 renal
MDA-MB-435 = system: MDA-MB-435
NCI-H23 lung = system: NCI-H23 lung
OVCAR-4 ovarian = system: OVCAR-4 ovarian
NCI-H226 lung = system: NCI-H226 lung
CCRF-CEM leukemia = system: CCRF-CEM leukemia
HOP-92 NSCLC = system: HOP-92 NSCLC
NCI-H460 lung = system: NCI-H460 lung
HT29 colon = system: HT29 colon
SR leukemia = system: SR leukemia
HCT-15 colon = system: HCT-15 colon
UACC-62 melanoma = system: UACC-62 melanoma
MOLT-4 leukemia = system: MOLT-4 leukemia
RPMI-8226 leukemia = system: RPMI-8226 leukemia
MALME-3M melanoma = system: MALME-3M melanoma
A549 NSCLC = system: A549 NSCLC
DU-145 prostate = system: DU-145 prostate
PC-3 prostate = system: PC-3 prostate
ACHN renal = system: ACHN renal
M14 melanoma = system: M14 melanoma
SF-268 CNS = system: SF-268 CNS
TK-10 renal = system: TK-10 renal
OVCAR-3 ovarian = system: OVCAR-3 ovarian
SF-539 CNS = system: SF-539 CNS
UACC-257 melanoma = system: UACC-257 melanoma
NCI-H522 lung = system: NCI-H522 lung
T-47D breast = system: T-47D breast
HCC-2998 colon = system: HCC-2998 colon
OVCAR-8 ovarian = system: OVCAR-8 ovarian
HOP-62 NSCLC = system: HOP-62 NSCLC
KM12 colon = system: KM12 colon
SN12C renal = system: SN12C renal
MDA-MB-468 breast = system: MDA-MB-468 breast
HL-60(TB) leukemia = system: HL-60(TB) leukemia
LOX IMVI melanoma = system: LOX IMVI melanoma
SK-MEL-28 melanoma = system: SK-MEL-28 melanoma
HS 578T breast = system: HS 578T breast
SK-OV-3 ovarian = system: SK-OV-3 ovarian
EKVX NSCLC = system: EKVX NSCLC
OVCAR-5 ovarian = system: OVCAR-5 ovarian
COLO 205 colon = system: COLO 205 colon
K-562 leukemia = system: K-562 leukemia
IGROV1 ovarian = system: IGROV1 ovarian
CAKI-1 renal = system: CAKI-1 renal
SF-295 CNS = system: SF-295 CNS
BT-549 breast = system: BT-549 breast
NCI/ADR-RES ovarian = system: NCI/ADR-RES ovarian
SW-620 colon = system: SW-620 colon
HCT-116 colon = system: HCT-116 colon

Cc1ccc(Cl)cc1NC(=O)Nc1nc2ccc([N+](=O)[O-])cc2s1
GI50 (A498 renal): 2.38 µM | TGI (A498 renal): 6.29 µM | GI50 (SNB-19 CNS): 3.43 µM | TGI (SNB-19 CNS): 12.7 µM | GI50 (786-0 renal): 2.73 µM | TGI (786-0 renal): 10 µM | GI50 (MCF7 breast): 2.71 µM | TGI (MCF7 breast): 8.92 µM | GI50 (U251 CNS): 3.06 µM | TGI (U251 CNS): 10.7 µM | GI50 (SK-MEL-5 melanoma): 1.84 µM | TGI (SK-MEL-5 melanoma): 3.6 µM | GI50 (RXF 393 renal): 2.54 µM | TGI (RXF 393 renal): 9.73 µM | GI50 (MDA-MB-435): 3.33 µM | TGI (MDA-MB-435): 12.2 µM | GI50 (NCI-H23 lung): 2.27 µM | TGI (NCI-H23 lung): 6.58 µM | GI50 (OVCAR-4 ovarian): 3.36 µM | TGI (OVCAR-4 ovarian): 14.2 µM | GI50 (NCI-H226 lung): 3.34 µM | TGI (NCI-H226 lung): 12 µM | GI50 (CCRF-CEM leukemia): 3.02 µM | TGI (CCRF-CEM leukemia): 12.5 µM | GI50 (HOP-92 NSCLC): 2.29 µM | TGI (HOP-92 NSCLC): 6.42 µM | GI50 (NCI-H460 lung): 2.69 µM | TGI (NCI-H460 lung): 10.2 µM | GI50 (HT29 colon): 3.28 µM | TGI (HT29 colon): 10.5 µM | GI50 (SR leukemia): 2.05 µM | TGI (SR leukemia): 5.63 µM | GI50 (HCT-15 colon): 2.93 µM | TGI (HCT-15 colon): 11.3 µM | GI50 (UACC-62 melanoma): 2.86 µM | TGI (UACC-62 melanoma): 11.5 µM | GI50 (MOLT-4 leukemia): 2.3 µM | TGI (MOLT-4 leukemia): 6.76 µM | GI50 (RPMI-8226 leukemia): 1.85 µM | TGI (RPMI-8226 leukemia): 5.58 µM | GI50 (MALME-3M melanoma): 2.17 µM | TGI (MALME-3M melanoma): 6.39 µM | GI50 (A549 NSCLC): 2.94 µM | TGI (A549 NSCLC): 10.1 µM | GI50 (DU-145 prostate): 3.68 µM | TGI (DU-145 prostate): 14.1 µM | GI50 (PC-3 prostate): 2.97 µM | TGI (PC-3 prostate): 11.3 µM | GI50 (ACHN renal): 3.09 µM | TGI (ACHN renal): 10.6 µM | GI50 (M14 melanoma): 2.87 µM | TGI (M14 melanoma): 10.8 µM | GI50 (SF-268 CNS): 3.48 µM | TGI (SF-268 CNS): 13.8 µM | GI50 (TK-10 renal): 3.49 µM | TGI (TK-10 renal): 13 µM | GI50 (OVCAR-3 ovarian): 3.25 µM | TGI (OVCAR-3 ovarian): 11.6 µM | GI50 (SF-539 CNS): 2.6 µM | TGI (SF-539 CNS): 6.9 µM | GI50 (UACC-257 melanoma): 2.21 µM | TGI (UACC-257 melanoma): 6.63 µM | GI50 (NCI-H522 lung): 2.08 µM | TGI (NCI-H522 lung): 7.17 µM | GI50 (T-47D breast): 2.31 µM | TGI (T-47D breast): 7.87 µM | GI50 (HCC-2998 colon): 3.43 µM | TGI (HCC-2998 colon): 10.9 µM | GI50 (OVCAR-8 ovarian): 3.07 µM | TGI (OVCAR-8 ovarian): 11.7 µM | GI50 (HOP-62 NSCLC): 3.47 µM | TGI (HOP-62 NSCLC): 11.2 µM | GI50 (KM12 colon): 3.1 µM | TGI (KM12 colon): 10.3 µM | GI50 (SN12C renal): 2.86 µM | TGI (SN12C renal): 9.7 µM | GI50 (MDA-MB-468 breast): 2.24 µM | TGI (MDA-MB-468 breast): 6.6 µM | GI50 (HL-60(TB) leukemia): 1.88 µM | TGI (HL-60(TB) leukemia): 4.7 µM | GI50 (LOX IMVI melanoma): 3.28 µM | TGI (LOX IMVI melanoma): 12.1 µM | GI50 (SK-MEL-28 melanoma): 3.42 µM | TGI (SK-MEL-28 melanoma): 12.3 µM | GI50 (HS 578T breast): 2.75 µM | TGI (HS 578T breast): 9.4 µM | GI50 (SK-OV-3 ovarian): 2.19 µM | TGI (SK-OV-3 ovarian): 6.52 µM | GI50 (EKVX NSCLC): 2.79 µM | TGI (EKVX NSCLC): 10.1 µM | GI50 (OVCAR-5 ovarian): 3.33 µM | TGI (OVCAR-5 ovarian): 11.9 µM | GI50 (COLO 205 colon): 1.85 µM | TGI (COLO 205 colon): 3.58 µM | GI50 (K-562 leukemia): 2.5 µM | TGI (K-562 leukemia): 10.2 µM | GI50 (IGROV1 ovarian): 3.92 µM | TGI (IGROV1 ovarian): 14.3 µM | GI50 (CAKI-1 renal): 3.18 µM | TGI (CAKI-1 renal): 11.7 µM | GI50 (SF-295 CNS): 2.24 µM | TGI (SF-295 CNS): 6.59 µM | GI50 (BT-549 breast): 2.35 µM | TGI (BT-549 breast): 7.92 µM | GI50 (NCI/ADR-RES ovarian): 2.54 µM | TGI (NCI/ADR-RES ovarian): 9.04 µM | GI50 (SW-620 colon): 3.06 µM | TGI (SW-620 colon): 12.4 µM | GI50 (HCT-116 colon): 2.81 µM | TGI (HCT-116 colon): 11 µM
